Source: article PMC6155332, “Antimalarials with Benzothiophene Moieties as Aminoquinoline Partners” (Molecules : A Journal of Synthetic Chemistry and Natural …, 2017)
Several values for one entry are separate records, joined by “and”; a condition that tells them apart may be missing. Equal values may be shown once. Read-outs that look alike come from different tables or passages of the source.

Experiments:
P. berghei (ANKA) = assay: Modified Thompson test, P. berghei mouse efficacy; type: in vivo, Plasmodium berghei; settings: for Parasitemia D18: day 18; for Parasitemia D21: day 21; for Parasitemia D25: day 25; for Parasitemia D28: day 28; for Parasitemia D11: day 11; for Parasitemia D31: day 31 (end of study); for Mean Survival Time (MST, Days) / Mice Alive on Day 31 / Mice Dead/Day Died: infected mice
Procedure: In a separate host toxicity study, benzothiophene 25 was subjected to in vivo toxicity evaluation. […]
The P. berghei (ANKA) mouse efficacy tests were conducted using a modified version of the Thompson test. Groups of five mice were inoculated intraperitoneally with erythrocytes infected with P. berghei on day 0. Drugs were suspended in 0.5% hydroxyethylcellulose-0.1% Tween 80 and administered orally once a day beginning on day 3 post infection. […] Cure was defined as survival (with no parasitemia) until day 31 post-treatment. Parasitemia was determined by thin-blood Giemsa-stained smears prepared from mice tail blood of each animal on days 0, 3, 6, 10, 13, 17, 20, 24, 27, and 31 (postinfection). The slides were examined under a light microscope.

healthy mice = assay: Host toxicity study in healthy mice; type: in vivo; settings: 160 mg/kg/day × 3 days; for Mice survived in host toxicity study: groups of 5 healthy mice; for Host toxicity (toxic / non-toxic): healthy mice, orally
Procedure: In a separate host toxicity study, groups of five healthy mice were administered 160 mg/kg/day × 3 days of the investigational compounds and individually monitored for behavior and appearance two times a day for 31 days. No toxicity was defined as survival past day 31 with no overt clinical manifestations of toxicity (changes in behavior and appearance).

β-hematin formation = assay: Inhibition of β-hematin formation (BHIA assay); type: biochemical; settings: molar equivalent of compound, relative to hemin, that inhibits β-hematin formation by 50%
From the text: [33] The inhibition of β-hematin formation is expressed as the molar equivalent of compound, relative to hemin, that inhibits β-hematin formation by 50% and determined by slightly modified BHIA assay introduced by ParapiniS.BasilicoN.PasiniE.EganT.J.OlliaroP.TaramelliD.MontiD.Standardization of the physicochemical parameters to assess in vitro the beta-hematin inhibitory activity of antimalarial drugsExp. Parasitol.200096249256

P. berghei DNA = assay: qPCR of blood and liver of treated mice for Plasmodium 18S rRNA gene; type: in vivo, Plasmodium berghei; settings: mice treated 160 mg/kg/day × 3 days, alive past day 31
From the text: Briefly, genomic DNA was extracted from the blood and liver of experimental animals using the DNeasy blood and tissue kit (Qiagen, Hilden, Germany) according to the manufacturer’s instructions. The primers and corresponding TaqMan (Applied BioSystems. Foster City, CA, USA) probe amplify and detect a highly conserved region of the 18S rRNA gene of the genus Plasmodium. Pure P. berghei gDNA samples were used as positive controls.
Genomic DNA was extracted from the blood and liver of experimental animals using the DNeasy blood and tissue kit (Qiagen, Hilden, Germany) according to the manufacturer’s instructions. Briefly, mice alive past day 31 with complete parasite clearance were sacrificed. Next, between 300 and 500 μL of blood was removed after heart puncture and the organs were removed, rinsed with dPBS and homogenized. The liver was homogenized using mechanical disruption and then subjected to proteinase K digestion. Approximately 100 μL of sample was used per each spin column for gDNA extraction.
Briefly, the primers and corresponding TaqMan probe amplify and detect a highly conserved region of the 18S rRNA gene of the genus Plasmodium. The primer and probe sequences were as follows: forward primer Plasmo 1: 5-[…] TCAGA-3; reverse primer Plasmo 2: 5-[…] TCATAA-3; TaqMan probe Plasprobe: 5-FAM-[…] GACTAG-TAMRA-3. […]

[1] = test system: P. falciparum D6 (CQ susceptible (CQS) strain); parameters: method as in PMID 26640981, PMID 25801154; settings: previously reported compounds; ref [27],[28]; cited from earlier work
[2] = test system: P. falciparum W2 (CQ resistant (CQR) strain); parameters: method as in PMID 26640981; settings: previously reported compounds; ref [27]; cited from earlier work
[3] = test system: HepG2 (hepatocellular carcinoma) cell line; parameters: method as in PMID 26640981; settings: previously reported compounds; ref [27]; cited from earlier work
[4] = test system: P. falciparum D6 (CQ susceptible (CQS) strain); assay: Malaria SYBR Green Fluorescence Assay, D6 strain; type: cell-based; settings: Plasmodium falciparum; CQ susceptible African D6 clone; read-out: In Vitro Antimalarial Activity (P. falciparum, IC50, nM) D6
[5] = test system: P. falciparum W2 (CQ resistant (CQR) strain); assay: microbe, parasite or virus in culture; type: cell-based, Plasmodium falciparum
[6] = test system: P. falciparum TM91C235 (Thailand, multidrug-resistant (MDR) strain); assay: Malaria SYBR Green Fluorescence Assay, TM91C235 strain; type: cell-based; settings: Plasmodium falciparum, read-out: In Vitro Antimalarial Activity (P. falciparum, IC50, nM) C235
[7] = test system: HepG2 (hepatocellular carcinoma) cell line; assay: Compound toxicity in HepG2 cell line; type: cell-based, human
Procedure: To investigate possible toxicity issues, the synthesized compounds were evaluated in vitro against a human hepatoma cell line (HepG2).
Synthesized aminoquinolines were screened in vitro against P. falciparum strains: CQ and MFQ susceptible strain D6 (clone of Sierra Leone/UNC isolate), CQ resistant but MFQ susceptible strain W2 (clone of Indochina isolate), and CQ and MFQ resistant strain TM91C235 (clone of South East Asian isolate) using the Malaria SYBR Green Fluorescence Assay. Full method details are given in Supplementary Materials I. Assessment of compound toxicity in a HepG2 (hepatocellular carcinoma) cell line followed the protocol described in Ref. [40].

[8] = 20 mg/kg/day p.o., days 3–6 postinfection
[9] = 40 mg/kg/day p.o., days 3–6 postinfection
[10] = 80 mg/kg/day p.o., days 3–6 postinfection
[11] = 160 mg/kg/day p.o., days 3–5 postinfection
[12] = 160 mg/kg/day p.o., days 3–5 postinfection, 160 mg/kg/day

## Clc1ccc2c(NCCCCNCc3csc4ccccc34)ccnc2c1 [Compound 1]
P. berghei (ANKA); 20 mg/kg/day p.o. days 3–6
  Parasitemia D18: 6%
  Parasitemia D21: 27%
  Parasitemia D25: 63%
  Parasitemia D28: 66%
P. berghei (ANKA); 20 mg/kg/day
  Cure (4 days therapy): no cure
P. berghei (ANKA); 40 mg/kg/day p.o. days 3–6, day 7, positive mice
  Parasitemia D7: 5 mice negative
P. berghei (ANKA); 40 mg/kg/day p.o. days 3–6
  Parasitemia D11: no detectable parasitemia and 5 mice negative
  Parasitemia D18: 2.2%
  Parasitemia D21: 7.3%
  Parasitemia D25: 37%
  Parasitemia D28: 53%
P. berghei (ANKA); 80 mg/kg/day p.o. days 3–6, day 7, positive mice
  Parasitemia D7: 4 mice negative
P. berghei (ANKA); 80 mg/kg/day p.o. days 3–6
  Parasitemia D11: 4 mice negative
  Parasitemia D18: 2.3%
P. berghei (ANKA); 160 mg/kg/day p.o. days 3–5, day 7
  Parasitemia D7: cleared all parasites
P. berghei (ANKA); 160 mg/kg/day p.o. days 3–5
  Parasitemia D31: parasite negative
P. berghei (ANKA); 160 mg/kg/day p.o. days 3–5, days 7–31
  Parasitemia D7–D31: 5 mice negative
P. berghei (ANKA); 80, 40 and 20 mg/kg/day p.o. for 4 days, starting day 3 postinfection
  Parasite clearance in dose response test: did not clear the parasites
P. berghei (ANKA); 80 and 40 mg/kg/day, clearance with recrudescence on D11-14
  Cure (4 days therapy): no cure
P. berghei (ANKA); P. berghei infected mice, 160 mg/kg/day × 3 days p.o.
  Mice cured (modified Thompson test, 3 days therapy): 5/5
P. berghei (ANKA); [8]
  Mean Survival Time (MST, Days): 16.8 days
  Mice Alive on Day 31: 0/5
P. berghei (ANKA); 20 mg/kg/day p.o., days 3–6 postinfection, 20 mg/kg/day
  Mice Dead/Day Died: 2/11 and 1/14 and 1/18 and 1/30
P. berghei (ANKA); [9]
  Mean Survival Time (MST, Days): 19.4 days
  Mice Alive on Day 31: 0/5
P. berghei (ANKA); 40 mg/kg/day p.o., days 3–6 postinfection, 40 mg/kg/day
  Mice Dead/Day Died: 1/30 and 1/15 and 1/16 and 2/18
P. berghei (ANKA); [10]
  Mean Survival Time (MST, Days): 18.2 days
  Mice Alive on Day 31: 0/4
P. berghei (ANKA); 80 mg/kg/day p.o., days 3–6 postinfection, 80 mg/kg/day
  Mice Dead/Day Died: 3/18 and 1/19
P. berghei (ANKA); [11]
  Mean Survival Time (MST, Days): >31 days
  Mice Alive on Day 31: 5/5
Healthy mice
  Mice survived in host toxicity study: 5/5
β-hematin formation
  IC50 of inhibition of β-hematin formation: 0.34 molar equivalent
P. berghei DNA
  P. berghei DNA in blood and tissue samples (qPCR): negative
[1]
  IC50: 8 nM
[2]
  IC50: 31 nM
[3]
  SI(HepG2/D6): 282

## N#Cc1ccc2scc(CNCCCNc3ccnc4cc(Cl)ccc34)c2c1 [Compound 3]
[1]
  IC50: 5 nM

## Fc1ccc2scc(CNCCCCNc3ccnc4cc(Cl)ccc34)c2c1 [Compound 2]
[1]
  IC50: 10 nM

## Cc1ccc(-c2ccc(CNCCNc3ccnc4cc(Cl)ccc34)s2)cc1 [Compound 6]
[1]
  IC50: 5 nM

## N#Cc1ccc(-c2ccc(CNCCCNc3ccnc4cc(Cl)ccc34)s2)cc1 [Compound 4]
[1]
  IC50: 2 nM

## Clc1ccc2c(NCCCNCc3csc4ccccc34)ccnc2c1 [Compound 53]
Healthy mice
  Host toxicity (toxic / non-toxic): toxic
[1]
  IC50: 7 nM
[2]
  IC50: 24 nM
[3]
  SI(HepG2/D6): 1111

## CC(CCCNCc1ccc(-c2csc3ccc(F)cc23)cc1)Nc1ccnc2cc(Cl)ccc12 (stereo not shown) [Compound 25]
[4]
  IC50: 71 nM
[5]; IC50 W2 / IC50 D6
  RI W2/D6 (resistance index): 0.2
[5]; Plasmodium falciparum, W2, read-out: In Vitro Antimalarial Activity (P. falciparum, IC50, nM) W2
  IC50: 12 nM
[6]
  IC50: 121 nM
[7]; Homo sapiens, HepG2, hepatocellular carcinoma cells
  IC50: 2090 nM
[7]; IC50 HepG2 / IC50 D6
  SI HepG2/D6 (selectivity index): 29
P. berghei (ANKA); 160 mg/kg/day p.o. days 3–5
  Parasitemia D21: 2.7%
  Parasitemia D28: 72%
  Parasitemia D31: 79%
P. berghei (ANKA); 160 mg/kg/day p.o. days 3–5, day 24
  Parasitemia D24: 52%
P. berghei (ANKA); [11]
  Mean Survival Time (MST, Days): 20.8 days
P. berghei (ANKA); [12]
  Mice Alive on Day 31: only one surviving 31 days but with parasitemia and 1/4
  Mice Dead/Day Died: 2/17 and 1/18
Healthy mice
  Mice survived in host toxicity study: 5
  Host toxicity (toxic / non-toxic): non-toxic

## COc1ccc(-c2ccc(CNCCCNc3ccnc4cc(Cl)ccc34)s2)cc1 [Compound 5]
[1]
  IC50: 7 nM
